Assay [1] deals with T1, MAP kinase-activated protein kinase 5 (Homo sapiens) (UniProt Q8IW41).
T1 sequence (whole entry): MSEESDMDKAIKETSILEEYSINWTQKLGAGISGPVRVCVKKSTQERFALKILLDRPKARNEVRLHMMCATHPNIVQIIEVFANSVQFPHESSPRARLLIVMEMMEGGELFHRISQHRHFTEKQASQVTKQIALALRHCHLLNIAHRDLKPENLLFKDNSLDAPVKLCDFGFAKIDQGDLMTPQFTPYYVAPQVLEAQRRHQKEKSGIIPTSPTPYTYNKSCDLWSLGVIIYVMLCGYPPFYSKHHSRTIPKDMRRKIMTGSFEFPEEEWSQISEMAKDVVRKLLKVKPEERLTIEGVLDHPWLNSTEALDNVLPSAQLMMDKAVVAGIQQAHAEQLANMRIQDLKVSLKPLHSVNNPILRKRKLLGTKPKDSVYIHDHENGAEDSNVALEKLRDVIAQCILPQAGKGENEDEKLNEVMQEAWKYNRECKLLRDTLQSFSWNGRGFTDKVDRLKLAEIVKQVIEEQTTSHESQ
Nature of the assay: Residual activity of MAPKAPK5 at 10 uM by microplate scintillation counting.

Assay [2] concerns the target Mitogen-activated protein kinase 11 (Homo sapiens) (UniProt Q15759). Nature of the assay: Residual activity of p38beta at 0.1 uM by microplate scintillation counting.
The target in assay [3] is Cyclin-dependent kinase 4/cyclin D1 (Homo sapiens) (UniProt P11802+P24385). Briefly: Residual activity of CDK4/Cyclin D1 at 0.1 uM by microplate scintillation counting. The assay is classed as protein-complex assay.
Assay [4] addresses T2, Protein kinase C iota type (Homo sapiens) (UniProt P41743).
T2 sequence (whole entry): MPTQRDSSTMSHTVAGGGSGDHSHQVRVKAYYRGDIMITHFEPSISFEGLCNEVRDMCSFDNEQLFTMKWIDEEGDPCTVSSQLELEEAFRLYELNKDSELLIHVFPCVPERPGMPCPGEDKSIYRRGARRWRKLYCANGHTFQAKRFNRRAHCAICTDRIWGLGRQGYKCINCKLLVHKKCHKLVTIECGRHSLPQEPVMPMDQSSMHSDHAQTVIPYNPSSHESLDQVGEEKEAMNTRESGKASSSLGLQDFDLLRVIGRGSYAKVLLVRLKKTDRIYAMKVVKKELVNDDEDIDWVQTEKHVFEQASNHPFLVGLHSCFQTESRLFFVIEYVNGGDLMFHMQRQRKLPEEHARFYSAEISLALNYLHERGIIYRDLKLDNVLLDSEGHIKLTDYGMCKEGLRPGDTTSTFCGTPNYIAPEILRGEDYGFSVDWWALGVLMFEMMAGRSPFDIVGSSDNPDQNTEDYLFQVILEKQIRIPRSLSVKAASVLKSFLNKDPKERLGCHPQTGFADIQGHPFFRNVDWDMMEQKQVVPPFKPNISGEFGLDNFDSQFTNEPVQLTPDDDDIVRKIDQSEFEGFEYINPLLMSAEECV
Nature of the assay: Residual activity of PKCiota at 1 uM by microplate scintillation counting.

The target of assay [5] is Casein kinase I isoform gamma-1 (Homo sapiens) (UniProt Q9HCP0). Nature of the assay: Residual activity of CK1gamma1 at 10 uM by microplate scintillation counting.
Chain of Casein kinase I isoform gamma-1 (Homo sapiens) (Q9HCP0 whole entry, looked up, canonical isoform): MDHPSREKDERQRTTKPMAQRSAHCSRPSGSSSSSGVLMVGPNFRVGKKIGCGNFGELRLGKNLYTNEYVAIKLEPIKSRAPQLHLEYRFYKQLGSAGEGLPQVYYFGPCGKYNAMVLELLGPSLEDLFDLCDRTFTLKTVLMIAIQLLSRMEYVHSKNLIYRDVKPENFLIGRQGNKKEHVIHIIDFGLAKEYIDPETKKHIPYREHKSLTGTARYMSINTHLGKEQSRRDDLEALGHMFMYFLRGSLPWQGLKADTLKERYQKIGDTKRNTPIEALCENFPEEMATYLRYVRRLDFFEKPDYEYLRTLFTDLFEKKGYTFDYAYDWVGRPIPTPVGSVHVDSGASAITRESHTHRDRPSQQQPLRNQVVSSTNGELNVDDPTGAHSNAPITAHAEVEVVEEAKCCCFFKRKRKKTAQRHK
The target in assay [6] is Fibroblast growth factor receptor 3 (Homo sapiens) (UniProt P22607). Nature of the assay: Residual activity of FGFR3 at 10 uM by microplate scintillation counting.
Chain of Fibroblast growth factor receptor 3 (Homo sapiens) (P22607 23-806 limits assumed): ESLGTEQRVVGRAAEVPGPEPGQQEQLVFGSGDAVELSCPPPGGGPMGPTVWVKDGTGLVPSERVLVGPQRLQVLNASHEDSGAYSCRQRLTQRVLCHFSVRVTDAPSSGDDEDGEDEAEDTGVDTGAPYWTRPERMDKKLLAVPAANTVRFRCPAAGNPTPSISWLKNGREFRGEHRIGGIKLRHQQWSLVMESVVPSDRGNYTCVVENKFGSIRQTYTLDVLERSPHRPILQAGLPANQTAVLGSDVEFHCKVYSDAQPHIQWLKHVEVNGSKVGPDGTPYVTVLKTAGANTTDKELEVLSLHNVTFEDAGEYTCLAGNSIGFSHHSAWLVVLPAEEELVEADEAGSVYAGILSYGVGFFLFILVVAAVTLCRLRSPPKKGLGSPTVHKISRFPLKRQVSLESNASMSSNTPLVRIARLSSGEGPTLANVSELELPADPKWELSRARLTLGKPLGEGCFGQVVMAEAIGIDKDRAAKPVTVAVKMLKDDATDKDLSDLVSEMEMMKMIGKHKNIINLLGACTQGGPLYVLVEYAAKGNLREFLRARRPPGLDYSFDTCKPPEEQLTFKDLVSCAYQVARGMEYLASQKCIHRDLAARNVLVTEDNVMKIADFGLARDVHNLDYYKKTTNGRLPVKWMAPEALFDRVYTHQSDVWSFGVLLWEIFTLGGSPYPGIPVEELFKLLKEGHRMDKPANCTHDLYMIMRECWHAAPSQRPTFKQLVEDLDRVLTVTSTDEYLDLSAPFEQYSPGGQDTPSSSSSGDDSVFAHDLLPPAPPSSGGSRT
Assay [7] addresses T3, Serine/threonine-protein kinase Sgk2 (Homo sapiens) (UniProt Q9HBY8).
T3 sequence (whole entry): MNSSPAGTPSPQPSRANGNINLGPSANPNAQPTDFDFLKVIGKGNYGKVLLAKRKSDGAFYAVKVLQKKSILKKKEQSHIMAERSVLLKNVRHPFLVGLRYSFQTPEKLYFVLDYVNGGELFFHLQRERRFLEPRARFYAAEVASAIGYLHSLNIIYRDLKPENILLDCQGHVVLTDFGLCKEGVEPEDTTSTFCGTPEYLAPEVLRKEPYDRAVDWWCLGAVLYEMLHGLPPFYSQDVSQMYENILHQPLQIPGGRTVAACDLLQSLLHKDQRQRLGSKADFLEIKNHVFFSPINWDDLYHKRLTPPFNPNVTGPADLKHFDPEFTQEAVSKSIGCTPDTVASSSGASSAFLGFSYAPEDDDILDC
Nature of the assay: Residual activity of SGK2 at 10 uM by microplate scintillation counting.

The target of assay [8] is Serine/threonine-protein kinase PAK 6 (Homo sapiens) (UniProt Q9NQU5). Nature of the assay: Residual activity of PAK6 at 1 uM by microplate scintillation counting.
Chain of Serine/threonine-protein kinase PAK 6 (Homo sapiens) (Q9NQU5 whole entry, looked up): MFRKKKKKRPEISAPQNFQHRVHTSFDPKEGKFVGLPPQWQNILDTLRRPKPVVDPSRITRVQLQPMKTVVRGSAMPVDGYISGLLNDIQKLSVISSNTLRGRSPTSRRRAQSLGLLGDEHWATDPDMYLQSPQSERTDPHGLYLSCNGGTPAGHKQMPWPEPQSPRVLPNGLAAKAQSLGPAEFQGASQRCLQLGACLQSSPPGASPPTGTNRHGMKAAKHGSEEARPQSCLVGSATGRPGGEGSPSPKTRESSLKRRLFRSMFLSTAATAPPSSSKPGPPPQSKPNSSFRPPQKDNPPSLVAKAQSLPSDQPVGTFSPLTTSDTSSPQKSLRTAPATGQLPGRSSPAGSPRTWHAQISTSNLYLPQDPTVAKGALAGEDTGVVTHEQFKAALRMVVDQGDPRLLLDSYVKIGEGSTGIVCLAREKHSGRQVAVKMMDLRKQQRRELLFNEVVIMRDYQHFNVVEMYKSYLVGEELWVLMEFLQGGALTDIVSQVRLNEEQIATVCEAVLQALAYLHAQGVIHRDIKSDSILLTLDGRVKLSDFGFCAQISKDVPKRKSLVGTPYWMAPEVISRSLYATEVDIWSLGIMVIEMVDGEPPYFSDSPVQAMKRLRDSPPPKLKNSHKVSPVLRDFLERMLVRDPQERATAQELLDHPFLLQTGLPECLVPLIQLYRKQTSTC
Assay [9] addresses SRSF protein kinase 3 (Homo sapiens) (UniProt Q9UPE1). Nature of the assay: Residual activity of STK23 at 0.1 uM by microplate scintillation counting.
Assay [10] has as its target T4, Serine/threonine-protein kinase NLK (Homo sapiens) (UniProt Q9UBE8).
T4 sequence (whole entry): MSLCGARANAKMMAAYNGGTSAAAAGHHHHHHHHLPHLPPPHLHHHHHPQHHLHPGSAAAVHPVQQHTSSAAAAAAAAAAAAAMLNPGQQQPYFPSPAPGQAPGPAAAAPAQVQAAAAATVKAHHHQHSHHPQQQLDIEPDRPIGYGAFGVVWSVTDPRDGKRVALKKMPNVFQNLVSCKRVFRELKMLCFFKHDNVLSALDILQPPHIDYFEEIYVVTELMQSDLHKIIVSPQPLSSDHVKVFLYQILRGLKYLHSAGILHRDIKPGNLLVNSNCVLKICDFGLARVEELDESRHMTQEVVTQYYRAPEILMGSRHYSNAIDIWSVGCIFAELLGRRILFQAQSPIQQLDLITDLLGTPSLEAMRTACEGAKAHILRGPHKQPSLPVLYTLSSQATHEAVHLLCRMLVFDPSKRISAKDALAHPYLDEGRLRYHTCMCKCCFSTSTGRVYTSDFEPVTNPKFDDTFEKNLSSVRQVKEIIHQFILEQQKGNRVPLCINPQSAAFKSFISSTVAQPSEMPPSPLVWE
Nature of the assay: Residual activity of NLK at 1 uM by microplate scintillation counting.

Assay [11] concerns Fibroblast growth factor receptor 1 (Homo sapiens), P11362 [V561M]. Nature of the assay: Residual activity of FGFR1 V561M mutant at 10 uM by microplate scintillation counting.
Chain of Fibroblast growth factor receptor 1 (Homo sapiens), P11362 [V561M] (P11362 whole entry V561M): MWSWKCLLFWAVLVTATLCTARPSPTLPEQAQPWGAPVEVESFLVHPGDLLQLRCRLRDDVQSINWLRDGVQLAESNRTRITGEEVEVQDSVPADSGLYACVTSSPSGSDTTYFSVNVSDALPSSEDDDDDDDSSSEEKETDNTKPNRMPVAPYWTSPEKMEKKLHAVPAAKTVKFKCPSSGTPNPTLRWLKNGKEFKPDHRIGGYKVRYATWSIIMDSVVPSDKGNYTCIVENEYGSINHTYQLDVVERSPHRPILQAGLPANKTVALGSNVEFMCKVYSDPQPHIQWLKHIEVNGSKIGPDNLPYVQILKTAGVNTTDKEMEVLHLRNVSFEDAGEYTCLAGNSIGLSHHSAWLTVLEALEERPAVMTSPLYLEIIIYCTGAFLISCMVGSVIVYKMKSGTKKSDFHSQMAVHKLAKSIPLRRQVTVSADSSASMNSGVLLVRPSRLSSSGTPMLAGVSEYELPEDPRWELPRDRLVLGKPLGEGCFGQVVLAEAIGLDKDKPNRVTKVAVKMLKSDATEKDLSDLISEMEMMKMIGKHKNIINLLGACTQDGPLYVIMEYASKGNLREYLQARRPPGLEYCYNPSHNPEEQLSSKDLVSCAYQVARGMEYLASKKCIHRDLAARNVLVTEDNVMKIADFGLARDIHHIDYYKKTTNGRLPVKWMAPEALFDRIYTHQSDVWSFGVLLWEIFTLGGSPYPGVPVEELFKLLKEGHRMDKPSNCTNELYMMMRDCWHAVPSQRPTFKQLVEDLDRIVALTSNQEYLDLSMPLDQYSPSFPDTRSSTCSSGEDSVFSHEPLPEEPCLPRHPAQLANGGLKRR
In assay [12] the target is Serine/threonine-protein kinase 26 (Homo sapiens) (UniProt Q9P289). Briefly: Residual activity of MST4 at 1 uM by microplate scintillation counting.
Assay [13] addresses Ribosomal protein S6 kinase alpha-5 (Homo sapiens) (UniProt O75582). Briefly: Residual activity of RPS6KA5 at 0.1 uM by microplate scintillation counting.
Assay [14] has as its target Protein kinase C delta type (Homo sapiens) (UniProt Q05655). Briefly: Residual activity of PKCdelta at 0.1 uM by microplate scintillation counting.
Assay [15] deals with Focal adhesion kinase 1 (Homo sapiens) (UniProt Q05397). Nature of the assay: Residual activity of FAK at 10 uM by microplate scintillation counting.
Chain of Focal adhesion kinase 1 (Homo sapiens) (Q05397 2-1052 limits assumed): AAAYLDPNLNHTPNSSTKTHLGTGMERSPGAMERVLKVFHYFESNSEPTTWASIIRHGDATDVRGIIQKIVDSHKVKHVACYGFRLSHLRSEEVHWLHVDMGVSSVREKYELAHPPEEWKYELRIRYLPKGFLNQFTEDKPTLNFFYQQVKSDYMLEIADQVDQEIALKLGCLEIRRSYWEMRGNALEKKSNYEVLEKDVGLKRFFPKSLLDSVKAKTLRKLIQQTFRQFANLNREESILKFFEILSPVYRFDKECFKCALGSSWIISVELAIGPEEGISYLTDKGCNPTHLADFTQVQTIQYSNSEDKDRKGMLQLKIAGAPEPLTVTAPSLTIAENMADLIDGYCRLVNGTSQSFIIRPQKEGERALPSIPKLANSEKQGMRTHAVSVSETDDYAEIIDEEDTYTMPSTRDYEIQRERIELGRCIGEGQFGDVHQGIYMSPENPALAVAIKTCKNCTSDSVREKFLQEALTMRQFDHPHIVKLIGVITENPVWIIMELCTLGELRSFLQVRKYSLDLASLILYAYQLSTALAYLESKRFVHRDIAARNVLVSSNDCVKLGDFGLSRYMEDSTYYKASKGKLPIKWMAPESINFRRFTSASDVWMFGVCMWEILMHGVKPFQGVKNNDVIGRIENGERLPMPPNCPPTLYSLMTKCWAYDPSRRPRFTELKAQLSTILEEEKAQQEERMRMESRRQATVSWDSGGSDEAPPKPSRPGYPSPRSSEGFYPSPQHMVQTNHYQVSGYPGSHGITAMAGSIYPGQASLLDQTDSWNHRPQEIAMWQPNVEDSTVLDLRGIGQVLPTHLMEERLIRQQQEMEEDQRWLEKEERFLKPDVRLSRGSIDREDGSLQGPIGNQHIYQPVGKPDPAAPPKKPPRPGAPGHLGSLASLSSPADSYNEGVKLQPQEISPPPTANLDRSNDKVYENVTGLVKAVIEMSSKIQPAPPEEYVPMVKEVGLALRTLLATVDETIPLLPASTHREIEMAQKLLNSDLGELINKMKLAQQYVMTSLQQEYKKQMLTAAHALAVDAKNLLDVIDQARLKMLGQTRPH
Assay [16] concerns the target Receptor tyrosine-protein kinase erbB-4 (Homo sapiens) (UniProt Q15303). Briefly: Residual activity of ERBB4 at 10 uM by microplate scintillation counting.

Chain of Ribosomal protein S6 kinase alpha-5 (Homo sapiens) (O75582 whole entry, looked up): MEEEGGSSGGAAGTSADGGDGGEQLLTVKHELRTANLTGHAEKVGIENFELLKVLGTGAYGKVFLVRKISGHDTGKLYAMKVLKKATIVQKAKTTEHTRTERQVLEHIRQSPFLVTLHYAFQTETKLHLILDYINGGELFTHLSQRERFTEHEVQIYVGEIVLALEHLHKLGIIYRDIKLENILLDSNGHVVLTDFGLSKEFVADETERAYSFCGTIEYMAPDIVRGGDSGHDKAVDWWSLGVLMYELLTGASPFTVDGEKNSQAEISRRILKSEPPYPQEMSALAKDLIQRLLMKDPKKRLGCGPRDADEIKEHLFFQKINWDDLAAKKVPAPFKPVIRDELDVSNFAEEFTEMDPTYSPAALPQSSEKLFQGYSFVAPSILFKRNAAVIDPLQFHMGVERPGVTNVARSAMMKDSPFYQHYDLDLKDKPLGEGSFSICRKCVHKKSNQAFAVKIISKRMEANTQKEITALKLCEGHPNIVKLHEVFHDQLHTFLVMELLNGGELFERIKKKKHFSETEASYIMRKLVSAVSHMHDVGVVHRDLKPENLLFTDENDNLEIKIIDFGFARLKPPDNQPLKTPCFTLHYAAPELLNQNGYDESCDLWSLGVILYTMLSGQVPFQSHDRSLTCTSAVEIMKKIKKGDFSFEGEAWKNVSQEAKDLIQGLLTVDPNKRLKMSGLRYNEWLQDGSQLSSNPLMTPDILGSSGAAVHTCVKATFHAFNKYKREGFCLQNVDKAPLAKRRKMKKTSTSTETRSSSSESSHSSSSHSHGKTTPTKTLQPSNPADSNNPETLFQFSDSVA
Chain of Mitogen-activated protein kinase 11 (Homo sapiens) (Q15759 whole entry): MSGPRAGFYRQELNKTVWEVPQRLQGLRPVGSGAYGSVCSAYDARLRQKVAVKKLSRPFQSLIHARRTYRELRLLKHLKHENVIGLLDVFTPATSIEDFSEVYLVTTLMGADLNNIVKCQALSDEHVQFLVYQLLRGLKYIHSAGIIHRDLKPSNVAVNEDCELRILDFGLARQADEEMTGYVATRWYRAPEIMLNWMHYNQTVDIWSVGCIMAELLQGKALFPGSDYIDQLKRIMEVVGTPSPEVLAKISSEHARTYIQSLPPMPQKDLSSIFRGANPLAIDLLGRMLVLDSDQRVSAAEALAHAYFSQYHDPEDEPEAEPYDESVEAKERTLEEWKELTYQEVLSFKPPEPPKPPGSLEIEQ

For `COc1cc2c(Oc3ccc(-c4nc5ccccc5s4)cc3F)ncnc2cc1OCCCN1CCN(C)CC1`, the residual activity in [1] turned out to be 134%; in assay [2], 105%; in assay [3] it was 98%; in [4], 102%; in [5], 229%; in [6], 46%. Moreover, the residual activity is 111% in assay [7]; 90% in assay [8]; 88% in assay [9]; 113% in assay [10]; 26% in [11]; 109% in assay [12]. Also, the residual activity in assay [13] came out at 86%; in assay [14] it was 95%; in assay [15], 84%; in assay [16], 54%.
Consider `COc1cc2c(Oc3ccc(-c4nc5ccccc5s4)cc3)ncnc2cc1OCCCN1CCN(C)CC1`, for which the residual activity in assay [1] came to 143%; in [2] it was 90%; in assay [3], 96%; in assay [4], 116%; in assay [5], 256%; in assay [6], 171%. Moreover, the residual activity was determined as 101% in [7]; 74% in assay [8]; 88% in assay [9]; 113% in assay [10]; 32% in [11]; 109% in assay [12]. The residual activity came to 89% in assay [13], 93% in assay [14], 93% in [15] and 118% in assay [16].
Regarding `COc1cc2c(Oc3ccc(-c4nc5ccccc5s4)cc3)ncnc2cc1OCCCN1CCCC1`, the residual activity in assay [1] turned out to be 109%; in assay [2] it was 104%; in assay [3], 98%; in [4], 103%; in assay [5] it was 200%; in assay [6], 169%. In addition, the residual activity in assay [7] amounted to 88%; in assay [8], 109%; in assay [9], 80%; in assay [10], 96%; in [11], 47%; in [12] it was 98%. For the same compound, the residual activity in assay [13] was found to be 96%; in assay [14] it was 88%; in assay [15], 93%; in assay [16], 116%.

(Values after ChEMBL document CHEMBL1152560, “Substituted 2-arylbenzothiazoles as kinase inhibitors: hit-to-lead optimization” (Bioorg Med Chem, 2009).)
